Tests used:
Format in all cases: physicochemical
[1] = Hard shell capsule stability in aqueous SBE-CD solutions; settings: for content in fill composition for an HSIT rating of at least 3: SAE-CD, PVP and water fill, CAPSUGEL HPMC hard shell capsule; for failure time: vcap, monitoring discontinued after fourteen days
Experimental: Two types of hard shell capsules obtained from […] were evaluated. A conventional hard gelatin capsule (HCAP) and a hard HPMC (hydroxypropyl methylcellulose) capsule (VCAP) were evaluated under identical conditions using aqueous solutions differing in the concentration of SBE-CD (sulfobutyl ether cyclodextrin).
In the absence of SBE or another shell-stabilizing material, these shell materials were unstable to erosion, dissolution, swelling and degradation by water. Under the conditions of the assay, SBE cyclodextrin was able to stabilize the VCAP shells for ≧14 days even at concentrations of ≧30% wt. of the fill composition. In this assay, monitoring was discontinued after fourteen days.

[2] = H.S.I.T. with SAE-CD, PVP and water fill compositions
Experimental: FIGS. 10a-10i depict ternary graphs correlating the concentration of SAE-CD, water and PVP in a fill composition to the H.S.I.T. rating of a soft shell capsule exposed to the fill composition. Aqueous fill solutions comprising differing amounts of PVP, SAE-CD and water were prepared. The stability tests were conducted as described below. The capsules described herein were used: SHIONOGI HGC (hard gelatin capsule) (FIG. 10A), […] HPMC hard shell capsule (FIG. 10b), SHIONOGI HPMC hard shell capsule (FIG. 10C), […] HGC (FIG. 10D), VEGAGEL hard shell capsule (FIG. 10E), hydrophilic fill-grade CARDINAL SGC (soft gelatin capsule) (FIG. 10f), lipophilic fill-grade CARDINAL SGC (FIG. 10g), hydrophilic fill-grade BANNER SGC (FIG. 10h), and lipophilic fill-grade BANNER SGC (FIG. 10i). No other shell-stabilizing material(s) was (were) included in the fill compositions evaluated. The results varied according to the capsule used. Stabilized aqueous fill composition-containing capsule formulations can be achieved with each capsule if one or more of the following fill compositions detailed below are used. • 1. Water comprises ≧55% of the fill composition, and the combination of SAE-CD, PVP, one or more optional excipients and one or more optional active agents comprises ≧45% of the fill composition; wherein SAE-CD can comprise up to 90% (85%, 83%, or 80%) of the weight of the fill composition, and PVP can comprise less than 90%, respectively, of the weight of the fill composition, provided that the fill composition comprises >≧35% PVP when SAE-CD comprises […]; ≦15% of the weight of the fill composition, and wherein both PVP (preferably water soluble or water swellable) and SAE-CD are present. • 2. Water comprises ≦45% of the fill composition, and the combination of SAE-CD, PVP, one or more optional excipients and one or more optional active agents comprises ≧55% of the fill composition; wherein SAE-CD can comprise up to 90% (85%, 83%, or 80%) of the weight of the fill composition, and PVP can comprise less than 90%, respectively, of the weight of the fill composition, provided that the fill composition comprises ≧35% PVP when SAE-CD comprises ≦20% of the weight of the fill composition, and wherein both PVP (preferably water soluble or water swellable) and SAE-CD are present. • 3. […]

[3] = Hard shell capsule stability in aqueous SBE-CD solutions; settings: SAE-CD, PVP and water fill; CAPSUGEL HGC
[4] = SHIONOGI HPMC hard shell capsule

Row | Molecule | content in fill composition for an HSIT rating of at least 3 [1] | content in fill composition for an HSIT rating of at least 3 ([2]; SHIONOGI HGC) | content in fill composition for an HSIT rating of at least 3 [2, 4] | content in fill composition for an HSIT rating of at least 3 [3] | failure time ([1]; 30% SBE solution) [days] | failure time ([1]; 40% SBE solution) [days] | failure time ([1]; 50% SBE solution) [days] | failure time ([1]; 60% SBE solution) [days] | time VCAP shells were stabilized ([1]; concentrations of ≧30% wt. of the fill composition) [days]
1 | O [Water] | ≦70% | ≦54% | ≦60% | ≦36% | – | – | – | – | –
2 | sulfobutyl ether cyclodextrin [SAE-CD] | ≧6% | ≧6% | ≧6% | ≧24% | >14 | >14 | >14 | >14 | ≥ 14

From US7829114B2, “Capsules containing aqueous fill compositions stabilized with derivatized cyclodextrin” (CyDex Pharmaceuticals, Inc., priority 2002, dated 2010)
